For 1 substance, glucose uptake and NO production results are on record in patent publication US12121561B1, “Composition for treating or preventing insulin resistance” (KING FAISAL UNIVERSITY, priority 2024, dated 2024).

One assay concerns glucose uptake. As to the kind of experiment: Glucose uptake with recombinant vWF protein.
Another assay concerns NO production. As to the kind of experiment: NO production with recombinant vWF protein.

As to “recombinant vWF protein: a recombinant vWF protein with a specific vWF sequence (SEQ ID NO: 1) (EPECNDITARLQYVKVGSCKSEVEVDIHYCQGKCASKAMYSIDINDVQDQCSC; listed as Homo sp.)”, the glucose uptake result in the assay with glucose uptake is “significantly inhibit”. The NO production result in the assay with NO production was “significantly inhibit”.
